In brackets after ≈: the same amount, converted by molar mass. Several values for one entry are separate records, joined by “and”; a condition that tells them apart may be missing. Equal entries are not always repeated. Each block holds one compound with its values, some of them ahead of it.
Legend:
Experiment in all cases: ≥ marks a high value that may be exact or a test limit, other limits are often not marked, values filed in µg/mL are converted to µM
[1] = tested on: Staphylococcus aureus NCTC 8325
[2] = tested on: Staphylococcus aureus T7/5
[3] = tested on: Prevotella melaninogenica
[4] = tested on: Proteus mirabilis ATCC 25933
[5] = tested on: Peptostreptococcus anaerobius
[6] = tested on: Peptoniphilus asaccharolyticus ATCC 29743
[7] = tested on: Bacteroides fragilis ATCC 25285
[8] = tested on: Cutibacterium acnes
[9] = tested on: Candida albicans ATCC 900280
[10] = tested on: Clostridium septicum
[11] = tested on: Staphylococcus aureus ATCC 25923
[12] = tested on: Cutibacterium acnes ATCC 11828
[13] = tested on: Escherichia coli ATCC 25922
[14] = tested on: Enterobacter cloacae HNTCC 53001
[15] = tested on: Fusobacterium varium ATCC 27725
[16] = tested on: Salmonella enterica subsp. enterica serovar Typhimurium LT2
[17] = tested on: Fusobacterium nucleatum
[18] = tested on: Enterococcus faecalis ATCC 29212
[19] = tested on: Pseudomonas aeruginosa ATCC 27853
[20] = tested on: Clostridium tertium ATCC 19465
[21] = tested on: Escherichia coli ATCC 25726
[22] = tested on: Candida albicans ATCC 90028
[23] = tested on: Klebsiella pneumoniae KK3 9904
[24] = tested on: Bacteroides fragilis
[25] = tested on: Staphylococcus epidermidis RP62A
[26] = tested on: Clostridium perfringens ATCC 10543
[27] = tested on: Batrachochytrium dendrobatidis
[28] = tested on: Staphylococcus aureus II ATCC 6538P
[29] = tested on: Staphylococcus epidermidis LT1324
[30] = tested on: Acinetobacter baumannii ATCC 19606
[31] = tested on: Staphylococcus simulans
[32] = tested on: Escherichia coli D21
[33] = tested on: Micrococcus luteus
[34] = tested on: Staphylococcus aureus BCRC 10780
[35] = tested on: Pseudomonas aeruginosa BCRC 10944
[36] = tested on: Listeria monocytogenes BCRC 14845
[37] = tested on: Vibrio alginolyticus
[38] = tested on: Staphylococcus aureus BCRC 10781
[39] = tested on: Staphylococcus xylosus BCRC 12930
[40] = tested on: Lactococcus garvieae
[41] = tested on: Streptococcus equinus BCRC 14729
[42] = tested on: Klebsiella oxytoca BCRC 13985
[43] = tested on: Vibrio harveyi
[44] = tested on: Vibrio parahaemolyticus BCRC 10806
[45] = tested on: Escherichia coli BCRC 10675
[46] = tested on: Vibrio alginolyticus BCRC 12829
[47] = tested on: Yersinia enterocolitica BCRC 13999
[48] = tested on: Vibrio anguillarum serotype O1
[49] = tested on: Enterobacter cloacae BCRC 10401
[50] = tested on: Vibrio parahaemolyticus
[51] = tested on: Streptococcus iniae
[52] = tested on: Klebsiella aerogenes BCRC 10370

MIC [1]: 6.32 µM (≈ 9.9 µg/mL)
MIC [2]: 10 µM (≈ 15.7 µg/mL)
MIC [3]: 12.5 µM (≈ 19.6 µg/mL)
MIC [4]: ≥ 128 µM
MIC [5]: 12.5 µM (≈ 19.6 µg/mL)
MIC [6]: 25 µM (≈ 39.1 µg/mL)
MIC [7]: ≥ 50 µM
MIC [8]: 6 µM (≈ 9.4 µg/mL)
MIC [9]: 16 µM (≈ 25.1 µg/mL)
MIC [10]: 12.5 µM (≈ 19.6 µg/mL)
MIC [11]: 8 µM (≈ 12.5 µg/mL)
MIC [12]: 6 µM (≈ 9.4 µg/mL)
MIC [13]: 20 µM (≈ 31.3 µg/mL)
MIC [14]: ≥ 32 µM
MIC [15]: ≥ 50 µM
MIC [16]: ≥ 32 µM
MIC [17]: 25 µM (≈ 39.1 µg/mL)
MIC [18]: 16 µM (≈ 25.1 µg/mL)
MIC [19]: 32 µM (≈ 50.1 µg/mL)
MIC [20]: 3 µM (≈ 4.7 µg/mL)
MIC [21]: ≥ 32 µM
MIC [22]: ≥ 40 µM and 25 µM
MIC [23]: ≥ 32 µM
MIC [24]: ≥ 50 µM
MIC [25]: 4 µM (≈ 6.26 µg/mL)
MIC [26]: 6 µM (≈ 9.4 µg/mL)
SMILES: CC[C@H](C)[C@H](NC(=O)[C@H](CCCCN)NC(=O)[C@H](CCCCN)NC(=O)[C@H](C)NC(=O)[C@H](CC(C)C)NC(=O)[C@H](CC(N)=O)NC(=O)[C@@H](NC(=O)[C@H](CC(C)C)NC(=O)[C@@H](NC(=O)CNC(=O)[C@H](CC(C)C)NC(=O)[C@H](Cc1ccccc1)NC(=O)[C@@H](N)Cc1cnc[nH]1)[C@@H](C)O)C(C)C)C(=O)N[C@@H](CC(C)C)C(N)=O [HFLGTLVNLAKKIL]

MIC [27]: ≥ 50 µM
SMILES: CC[C@H](C)[C@H](NC(=O)CN)C(=O)N[C@@H](CCSC)C(=O)N[C@@H](CC(=O)O)C(=O)N[C@@H](CO)C(=O)N[C@H](C(=O)N[C@@H](CCCCN)C(=O)NCC(=O)N[C@@H](C)C(=O)N[C@@H](C)C(=O)N[C@@H](CCCCN)C(=O)N[C@@H](CCC(=O)O)C(=O)N[C@H](C(=O)N[C@@H](C)C(=O)NCC(=O)N[C@@H](Cc1cnc[nH]1)C(=O)N[C@@H](CC(C)C)C(=O)N[C@@H](CC(C)C)C(=O)N[C@@H](CC(=O)O)C(=O)N[C@@H](CC(N)=O)C(=O)N[C@@H](CC(C)C)C(=O)N[C@@H](CCCCN)C(=O)N[C@H]1CSSC[C@@H](C(=O)O)NC(=O)CNC(=O)[C@H]([C@@H](C)O)NC(=O)[C@H]([C@@H](C)CC)NC(=O)[C@H](CCCCN)NC1=O)[C@@H](C)CC)[C@@H](C)CC [GIMDSIKGAAKEIAGHLLDNLKCKITGC]

MIC [28]: 6 µM (≈ 10.8 µg/mL)
MIC [29]: 1.5 µM (≈ 2.71 µg/mL)
MIC [30]: 2 µM (≈ 3.61 µg/mL)
MIC [31]: 1.5 µM (≈ 2.71 µg/mL)
MIC [13]: 3 µM (≈ 5.41 µg/mL)
MIC [32]: 3 µM (≈ 5.41 µg/mL)
MIC [19]: 6 µM (≈ 10.8 µg/mL)
MIC [33]: 2 µM (≈ 3.61 µg/mL)
SMILES: CC(C)C[C@H](NC(=O)[C@H](CC(C)C)NC(=O)[C@H](CCCCN)NC(=O)[C@H](CC(C)C)NC(=O)[C@H](CC(C)C)NC(=O)[C@H](CCCCN)NC(=O)[C@H](CC(C)C)NC(=O)[C@H](CC(C)C)NC(=O)[C@H](CCCCN)NC(=O)[C@H](CC(C)C)NC(=O)[C@H](CC(C)C)NC(=O)[C@H](CCCCN)NC(=O)[C@H](CC(C)C)NC(=O)[C@@H](N)CCCCN)C(=O)N[C@@H](CCCCN)C(N)=O [KLKLLKLLKLLKLLK]

MIC [34]: 29.1 µM
MIC [35]: 29.1 µM
MIC [36]: ≥ 58.2 µM
MIC [37]: 7.27 µM
MIC [38]: 29.1 µM
MIC [39]: 29.1 µM
MIC [40]: ≥ 116 µM
MIC [41]: ≥ 58.2 µM
MIC [42]: ≥ 58.2 µM
MIC [43]: 7.27 µM
MIC [45]: 14.5 µM
MIC [46]: ≥ 58.2 µM
MIC [47]: ≥ 116 µM
MIC [48]: 7.27 µM
MIC [49]: 7.27 µM
MIC [51]: ≥ 58.2 µM
MIC [52]: 14.5 µM
SMILES: CC[C@H](C)[C@H](NC(=O)[C@H](CCCCN)NC(=O)[C@H](CCCCN)NC(=O)[C@H](C)NC(=O)[C@H](Cc1ccccc1)NC(=O)[C@@H](NC(=O)[C@H](C)NC(=O)[C@H](CC(C)C)NC(=O)[C@H](CCCCN)NC(=O)[C@H](CCCCN)NC(=O)[C@H](C)NC(=O)[C@H](C)NC(=O)[C@H](CC(N)=O)NC(=O)[C@H](C)NC(=O)CN)[C@@H](C)O)C(=O)N[C@@H](Cc1ccccc1)C(=O)N[C@H](C(=O)N[C@@H](C)C(=O)N[C@@H](Cc1ccc(O)cc1)C(=O)N[C@@H](Cc1c[nH]c2ccccc12)C(=O)O)[C@@H](C)O [GANAAKKLATFAKKIFTAYW]
MIC [44]: ≥ 58.2 µM
MIC [50]: 7.27 µM

Source: DBAASP
